Among the data in article doi:10.1101/614586v1 (biorxiv, 2019) are IC50 and inhibition values, retold here.

The target in assay [1] is T1, human RAD54 (Homo sapiens, UniProt Q92698).
T1 sequence (Q92698 1-747): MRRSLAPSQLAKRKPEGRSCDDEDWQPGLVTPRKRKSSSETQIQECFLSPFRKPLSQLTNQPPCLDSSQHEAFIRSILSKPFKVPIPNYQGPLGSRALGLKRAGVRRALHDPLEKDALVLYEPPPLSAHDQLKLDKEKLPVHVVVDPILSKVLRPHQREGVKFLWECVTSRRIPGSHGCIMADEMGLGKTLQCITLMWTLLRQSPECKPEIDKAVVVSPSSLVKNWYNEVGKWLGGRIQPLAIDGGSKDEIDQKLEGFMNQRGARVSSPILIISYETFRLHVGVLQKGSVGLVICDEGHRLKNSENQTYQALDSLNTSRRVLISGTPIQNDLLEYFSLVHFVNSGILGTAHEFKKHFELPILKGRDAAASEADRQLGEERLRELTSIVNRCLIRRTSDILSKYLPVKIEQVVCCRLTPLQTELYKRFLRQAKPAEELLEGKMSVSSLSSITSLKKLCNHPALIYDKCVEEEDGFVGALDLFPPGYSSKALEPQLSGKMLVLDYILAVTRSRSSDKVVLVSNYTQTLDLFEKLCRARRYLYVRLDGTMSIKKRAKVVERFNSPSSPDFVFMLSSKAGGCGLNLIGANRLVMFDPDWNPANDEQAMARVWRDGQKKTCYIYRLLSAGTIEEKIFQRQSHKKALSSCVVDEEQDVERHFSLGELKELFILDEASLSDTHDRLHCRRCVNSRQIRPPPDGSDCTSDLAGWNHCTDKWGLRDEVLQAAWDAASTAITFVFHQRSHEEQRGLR
Description: malachite green phosphate ATPase assay. The format is biochemical.

The next assay deals with T2, S. cerevisiae Rdh54/Tid1 (Saccharomyces cerevisiae, UniProt P38086).
T2 sequence (P38086 35-958 limits assumed): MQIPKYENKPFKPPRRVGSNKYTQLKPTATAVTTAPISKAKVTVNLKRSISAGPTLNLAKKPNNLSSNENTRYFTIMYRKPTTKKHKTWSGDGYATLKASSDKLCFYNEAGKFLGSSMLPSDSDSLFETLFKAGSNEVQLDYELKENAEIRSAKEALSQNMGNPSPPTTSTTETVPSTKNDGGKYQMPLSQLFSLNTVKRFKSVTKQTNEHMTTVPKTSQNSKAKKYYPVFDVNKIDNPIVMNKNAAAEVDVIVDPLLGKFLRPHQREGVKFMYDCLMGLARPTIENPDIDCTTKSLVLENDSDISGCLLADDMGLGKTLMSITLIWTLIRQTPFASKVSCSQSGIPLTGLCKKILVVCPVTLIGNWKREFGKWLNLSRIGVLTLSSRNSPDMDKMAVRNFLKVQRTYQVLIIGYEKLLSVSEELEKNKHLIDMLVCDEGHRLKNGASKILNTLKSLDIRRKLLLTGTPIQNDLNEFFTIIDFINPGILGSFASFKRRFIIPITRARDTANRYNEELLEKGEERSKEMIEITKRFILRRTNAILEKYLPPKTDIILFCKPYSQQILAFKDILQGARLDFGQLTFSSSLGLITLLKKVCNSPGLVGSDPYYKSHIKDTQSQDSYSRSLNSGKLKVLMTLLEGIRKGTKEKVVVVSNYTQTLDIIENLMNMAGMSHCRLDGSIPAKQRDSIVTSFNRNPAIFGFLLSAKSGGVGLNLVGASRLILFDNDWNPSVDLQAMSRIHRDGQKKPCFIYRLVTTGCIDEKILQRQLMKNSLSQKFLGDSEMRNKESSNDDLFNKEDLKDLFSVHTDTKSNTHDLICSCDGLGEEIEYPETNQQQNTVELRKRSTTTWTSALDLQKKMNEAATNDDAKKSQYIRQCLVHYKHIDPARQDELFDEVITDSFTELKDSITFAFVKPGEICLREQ
In words: malachite green phosphate ATPase assay. It is filed as biochemical.

For a further assay, the target named is H. sapiens VCP/p97 (Homo sapiens, UniProt P55072). In words: malachite green phosphate ATPase assay. The format is biochemical.
The target of the next assay is T3, H. sapiens SMARCAL1 (Homo sapiens, UniProt Q9NZC9).
T3 sequence (Q9NZC9 2-954): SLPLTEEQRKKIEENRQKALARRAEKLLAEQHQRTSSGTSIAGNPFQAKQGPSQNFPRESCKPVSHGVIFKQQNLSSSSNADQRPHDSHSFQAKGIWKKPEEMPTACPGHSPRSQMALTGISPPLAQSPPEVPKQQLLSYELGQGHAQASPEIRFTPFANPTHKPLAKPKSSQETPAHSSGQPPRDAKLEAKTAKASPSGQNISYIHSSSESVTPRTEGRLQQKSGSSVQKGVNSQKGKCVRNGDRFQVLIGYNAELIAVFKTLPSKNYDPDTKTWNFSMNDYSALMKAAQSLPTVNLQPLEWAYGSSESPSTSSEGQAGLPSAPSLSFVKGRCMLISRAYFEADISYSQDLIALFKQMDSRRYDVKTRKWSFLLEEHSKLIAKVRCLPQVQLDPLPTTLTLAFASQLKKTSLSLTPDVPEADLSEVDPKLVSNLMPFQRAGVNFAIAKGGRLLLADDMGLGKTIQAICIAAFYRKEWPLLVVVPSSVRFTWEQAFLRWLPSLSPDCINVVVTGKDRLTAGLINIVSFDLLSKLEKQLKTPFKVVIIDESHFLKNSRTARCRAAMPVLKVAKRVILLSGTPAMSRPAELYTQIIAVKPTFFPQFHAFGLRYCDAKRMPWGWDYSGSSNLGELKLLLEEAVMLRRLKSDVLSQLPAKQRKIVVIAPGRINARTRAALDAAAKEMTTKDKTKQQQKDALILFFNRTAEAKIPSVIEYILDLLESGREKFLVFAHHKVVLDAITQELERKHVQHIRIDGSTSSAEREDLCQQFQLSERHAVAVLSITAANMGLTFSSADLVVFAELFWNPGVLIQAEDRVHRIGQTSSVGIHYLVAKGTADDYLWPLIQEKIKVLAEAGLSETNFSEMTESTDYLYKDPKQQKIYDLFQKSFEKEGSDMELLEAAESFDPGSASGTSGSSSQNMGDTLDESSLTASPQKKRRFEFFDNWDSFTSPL
Description: malachite green phosphate ATPase assay. The format is biochemical.

Assay [2] deals with T1, human RAD54. Description: biochemical. The note with it: read-out: % inh.

Where only a bound is given, the exact number is not on record here.

Chain of H. sapiens VCP/p97 (P55072 2-806): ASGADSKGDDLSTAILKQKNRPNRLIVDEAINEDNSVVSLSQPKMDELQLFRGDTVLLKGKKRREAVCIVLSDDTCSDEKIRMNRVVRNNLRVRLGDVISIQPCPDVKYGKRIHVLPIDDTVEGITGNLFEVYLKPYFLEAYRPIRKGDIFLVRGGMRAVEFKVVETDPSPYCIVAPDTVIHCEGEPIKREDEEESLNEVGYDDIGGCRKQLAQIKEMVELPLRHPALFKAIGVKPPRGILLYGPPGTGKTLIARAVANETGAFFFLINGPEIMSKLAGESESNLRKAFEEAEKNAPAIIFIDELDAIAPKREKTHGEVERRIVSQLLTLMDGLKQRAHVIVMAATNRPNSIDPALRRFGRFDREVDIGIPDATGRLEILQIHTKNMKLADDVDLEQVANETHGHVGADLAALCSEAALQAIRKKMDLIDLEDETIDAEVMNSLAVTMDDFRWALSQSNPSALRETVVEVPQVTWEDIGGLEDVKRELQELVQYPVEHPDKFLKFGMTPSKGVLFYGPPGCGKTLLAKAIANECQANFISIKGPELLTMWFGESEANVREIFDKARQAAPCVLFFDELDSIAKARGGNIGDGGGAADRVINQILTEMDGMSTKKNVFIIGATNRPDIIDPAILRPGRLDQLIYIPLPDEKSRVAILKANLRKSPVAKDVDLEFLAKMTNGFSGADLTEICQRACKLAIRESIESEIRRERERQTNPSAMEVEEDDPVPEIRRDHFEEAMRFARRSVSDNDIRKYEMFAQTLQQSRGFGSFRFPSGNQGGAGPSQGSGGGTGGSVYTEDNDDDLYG

The IC50 is the concentration needed to halve the response being measured. With `CN(C)CCCNCC(O)Cn1c2ccc(Cl)cc2c2cc(Cl)ccc21` (centres unmarked) [54i-1], the IC50 against human RAD54 [1] was 5 ± 1.05 µM; at S. cerevisiae Rdh54/Tid1, 43.2 ± 2.9 µM; against H. sapiens VCP/p97, > 500 µM; at H. sapiens SMARCAL1, 5.7 ± 0.6 µM. Moreover, the inhibition at 10 µM on human RAD54 [2] was 68%.
